Source: US20240245639A1, “Dermal Application of Retinoic Acid Receptor Agonists for Amelioration of Hypertrophic Scar” (Northwestern University, priority 2023, published 2024)
Read-outs that look alike come from different tables or passages of the source. Values belong to the compound of their own block, whether it stands above or below them.

How the values were obtained:
Type in all cases: cell-based
[1] = tested on: primary human foreskin fibroblasts; assay: Antagonism of fibroblast activation in presence or absence of TGF-β1 (qRT-PCR, Western blot, immunofluorescence); conditions: 10,000 nM ATRA, ± 10 ng/mL TGF-β1, 48 hours
Protocol: RAR Agonist all-Trans Retinoic Acid Antagonizes Myofibroblast Activation We then wished to see whether another RAR agonist could antagonize myofibroblast activation.
(§1) Cells cultured on glass coverslips were fixed in 4% paraformaldehyde for 30 minutes at room temperature. Cells were blocked in 10% normal goat serum and incubated overnight at 4° C. in solutions of the following primary antibodies: Rabbit monoclonal α-human α-SMA (1:500 dilution, catalog #192455, Cell Signaling Technology, Danvers M A) or mouse α-human COL1A1 (1:1000 dilution, catalog #M-38c, DSHB, Iowa City, IA). The following day, cells were incubated in 1:200 diluted solutions of goat-α-rabbit IgG or donkey-α-mouse IgG Alexafluor 488-conjugated secondary antibodies (A11034 or A21202, Invitrogen) containing Alexafluor 568-conjugated phalloidin (A12380, Invitrogen) for 2 hours in the dark at room temperature, before a 20 minute counterstain in 500 ng/mL DAPI. Coverslips were mounted onto slides in the dark using Fluoro Gel with DABCO (Electron Microscopy Sciences, Hatfield, PA) and imaged on an EVOS-FL imaging system (ThermoFisher).
Harvested scar tissues were incubated in 0.5M ammonium thiocyanate for 20 minutes, followed by mechanical separation of dermis and epidermis using a dissecting microscope. Isolated dermal tissues were minced with a razor blade, submerged in RIPA buffer, and homogenized in the presence of 2 mm zirconia beads using a MagNA Lyser (Roche, Basel, Switzerland). Alternatively, cell culture samples were detached from the culture surface by trypsinization, collected by centrifugation, and lysed in RIPA buffer. Protein concentrations of cell culture and tissue samples were determined using a DC protein assay (BioRad). Five micrograms of total protein were loaded onto polyacrylamide gels and subjected to SDS-PAGE before transfer to nitrocellulose membranes, blocking with 5% dry milk in TBS-T, and probing with target-specific primary antibodies overnight. Species-specific secondary antibody solutions were added to membranes, and chemiluminescent signal was developed with Amersham ECL Western blotting detection reagent using X-ray film.
Primary antibodies used were rabbit anti-α-SMA (1:1000, 19245S, Cell Signaling Technology), rabbit anti-collagen I (1:1000, ab34710, Abcam), mouse anti-collagen I (1:1000, C2456, Sigma-Aldrich), and mouse anti-GAPDH (1:5000, MA5-15738, Invitrogen). Secondary antibodies utilized were HRP goat anti-rabbit IgG(H+L) and horse anti-mouse IgG(H+L) (Vector Laboratories, Newark, CA), both used at 1:5000.

[2] = tested on: primary human HTS fibroblasts; assay: Collagen I deposition in hypertrophic scar fibroblasts (Western blot, immunofluorescence); conditions: HTS fibroblasts, ATRA, data not shown
Protocol: (§2) Since overproduction of collagen is characteristic of fibroblasts in tissue fibrosis, including hypertrophic scar and keloid, we wished to determine whether Ch55 also affects deposition of collagen I by these fibroblasts.
as §1, with “Coverslips were mounted onto slides in the dark using Fluoro Gel with DABCO (Electron Microscopy Sciences, Hatfield, PA) and imaged on an EVOS-FL imaging system (ThermoFisher).” left out
(§3) Harvested scar tissues were incubated in 0.5M ammonium thiocyanate for 20 minutes, followed by mechanical separation of dermis and epidermis using a dissecting microscope. […] Protein concentrations of cell culture and tissue samples were determined using a DC protein assay (BioRad). […]

[3] = tested on: primary human keloid fibroblasts; assay: Collagen I deposition in keloid fibroblasts (Western blot, immunofluorescence); conditions: keloid fibroblasts, ATRA, data not shown
Protocol: as §2
as §1, with “Coverslips were mounted onto slides in the dark using Fluoro Gel with DABCO (Electron Microscopy Sciences, Hatfield, PA) and imaged on an EVOS-FL imaging system (ThermoFisher).” left out
as §3

[4] = tested on: primary human foreskin fibroblasts; assay: In vitro single-concentration screen of predicted compounds (brightfield, qRT-PCR)
Protocol: In order to initially test the identified drugs, we applied each drug or DMSO vehicle control at a single concentration to primary human foreskin fibroblasts in vitro for 24 hours, before harvesting and measuring relative expression of selected myofibroblast marker genes by qRT-PCR. […] None of the drugs tested appeared to affect expression of TGFB1 (the gene encoding transforming growth factor-beta 1) at the examined concentrations.
MATERIALS AND METHODS Materials Emetine dihydrochloride hydrate, homoharringtonine, Ch55 and panobinostat were acquired from Fisher Scientific (Waltham, MA). AZD-7762 was acquired from Selleck Chemicals (Houston, TX). For in vitro work, emetine dihydrochloride hydrate was dissolved in sterile H2O at 50 mM. Homoharringtonine was dissolved in DMSO at 10 mg/mL. Panobinostat was dissolved in DMSO at 425 μM. […] AZD-7762 was dissolved in DMSO at 500 μM. Recombinant human TGF-β1 (Sigma-Aldrich) was dissolved in sterile H2O at 50 µg/mL. All-trans-retinoic acid (Thermo Scientific) was dissolved in DMSO at 10 mM.

[5] = single concentration, 24 hours, vs vehicle

Structure (SMILES): CC1=C(/C=C/C(C)=C/C=C/C(C)=C/C(=O)O)C(C)(C)CCC1 [ATRA, all-trans retinoic acid]
F-actin stress fiber formation [1]: substantially decreased
collagen I protein (Western blot, immunofluorescence) [1]: substantially decreased
α-SMA protein (Western blot, immunofluorescence) [1]: substantially decreased
expression of collagen I [2]: dramatically decreased
expression of collagen I [3]: dramatically decreased

Structure (SMILES): NC(=O)Nc1cc(-c2cccc(F)c2)sc1C(=O)N[C@H]1CCCNC1 [AZD-7762]
downregulation of myofibroblast-associated genes ([4]; single concentration, 24 hours): neither did it appear to downregulate
myofibroblast activation ([4]; single concentration, 24 hours): did not show a similar effect of fibroblast activation

detachment of cells from the tissue culture plate [4]: notable detachment of cells
Structure (SMILES): COC(=O)C[C@](O)(CCCC(C)(C)O)C(=O)O[C@@H]1C(OC)=C[C@]23CCCN2CCc2cc4c(cc2[C@H]13)OCO4 [homoharringtonine]

Structure (SMILES): CC[C@H]1CN2CCc3cc(OC)c(OC)cc3[C@@H]2C[C@@H]1C[C@H]1NCCc2cc(OC)c(OC)cc21 [emetine]
detachment of cells from the tissue culture plate ([4]; single concentration, 24 hours): notable detachment of cells
myofibroblast activation ([4]; single concentration, 24 hours): induced myofibroblast activation
CCN2 expression (qRT-PCR) [4, 5]: increased expression
MMP1 expression (qRT-PCR) [4, 5]: decreased expression
SERPINE1 expression (qRT-PCR) [4, 5]: increased expression
